# Measured values: patent publication US20130337453A1, “EXTRACELLULAR MITOCHONDRIA-BASED SCREENING AND TREATMENT” (TUFTS UNIVERSITY, priority 2010, published 2013)
# “Also recorded” adds a separate entry of the source.
# Experiments:
# LAD2 cells [1] = experiment: Pre-stored TNF secretion measured by ELISA; format: cell-based, human; conditions: MDIVI-1 40 μM pretreatment; SP 1 and 2 μM, vs SP alone
# Protocol: (§1) FIG. 2 illustrates that SP-stimulated degranulation and pre-stored TNF secretion is blocked by the mitochondrial fission protein Drp1 inhibitor (MDIVI-1) and Drp1-silencing siRNA. LAD2 cells were treated with MDIVI-1 (40 μM) for 15 min at 37° C. FIG. 2A: Mitochondrial morphology was evaluated by Confocal microscopy in normal LAD2 cells with or without stimulation with SP (2 μM, 30 min, 37° C.). Left panels represent granules; middle panels show mitochondria and the right panels are merged from the previous two. The images shown are representative of more than 40 cells studied. […] LAD2 cells were pretreated with MDIVI-1 (40 μM) for 30 min and then stimulated with SP (1 or 2 μM) for 30 min at 37° C. β-hexosaminidase was measured spectrophotometrically and TNF was measured by ELISA.
# (§2) In order to rule out the possibility that mitochondrial translocation at the cell surface is a bystander effect secondary to cell shape changes during degranulation, the function of Drp1 in mast cell degranulation was investigated. Pretreatment of LAD2 mast cells with the mitochondria] Drp1 inhibitor MDIVI-1 at 40 μM for 15 min at 37° C. (Cassidy-Stone, et al. 2008, Dev. Cell 14:193-204) inhibited mitochondrial translocation (FIG. 2A) despite addition of SP (2 μM for 30 min).
# LAD2 cells [2] = experiment: SP-triggered beta-hexosaminidase release (degranulation index); format: cell-based, human; conditions: MDIVI-1 40 μM pretreatment; SP 1 and 2 μM, vs SP alone
# Protocol: as §1, §2
# LAD2 cells [3] = experiment: Mitochondrial translocation in live mast cells by confocal microscopy (MitoTracker/LysoTracker); format: cell-based, human
# Protocol: LAD2 cells, mast cells derived from a human leukemia patient,were stained with MitoTracker probe (20 nM) for 20 min (middle panels) and LysoTracker DND probe (50 nM) for 30 min (left panels). The cells were then moved to glass bottom culture dishes and observed by TSC SP2 Confocal microscopy. […] The left panels show granules in green. The middle panels represent mitochondria florescence. The right panels represent images merged from the two previous panels. […] Merged images (as described above) of 100 cells randomly selected from each experiment (n=3) are scored by three different operators each time. […] Confocal images from 19 resting cells and 20 degranulating cells (SP 2 μM, 30 min) were randomly selected for analysis. Mitochondria numbers were calculated by ImageJ software using a “mitochondria calculator” plugin.
# as §1
# Very few mitochondria could be found in the cell surface region. It is almost impossible to distinguish individual mitochondria from this pool by confocal microscopy. Since the average pH of mast cell secretory granules is 5.5, LysoTracker (left panels) was used as a dye to stain the granules. After SP (2 μM) stimulation for 30 min at 37° C., mast cells underwent rapid degranulation, during which mitochondrial particles translocate throughout the cell (FIG. 1A). […]
# [4] = tested on: peripheral sensory neurons; conditions: Inagaki 2010; cited from earlier work
# rat mast cells = rat mast cells (Sengoku 2000); cited from earlier work
# mouse model of AD = mouse model of AD (Inagaki 2010); cited from earlier work
# LAD2 cells [5] = experiment: Mitochondria-induced degranulation (beta-hex release) after P2X7 receptor inhibitor pre-treatment; format: cell-based, human; conditions: pre-incubation 30 min; beta-hex release 30 min after stimulation
# Protocol: FIG. 10 illustrates that mt component activation of LAD2 cells is P2X7-receptor-dependent. LAD2 cells were pre-treated with P2X7 receptor inhibitor for 30 min and then stimulated with mt components. Different concentration of CpG-ODN [ISOLATED fomyl-peptides?] was used to stimulated LAD2 cells (FIG. 10A). LAD2 cells were treated with a P2X7 receptor inhibitor (FIG. 10B). Beta-hex release was measured 30 mins after stimulation. (n=3; *p<0.05, compared to control). FIG. 10C: live LAD2 cells were stained with stained with Fura-2to measure intracellular calcium changes in response to different concentrations of mt components.
# We then investigated which components from sonicated mitochondria may activate LAD2 cells. ATP has been reported to stimulated human mast cell degranulation (Cohen et al., 2001, Biochemistry 40:6589-97). Therefore, we tested if inhibition of P2X7 receptors, the primary receptor of ATP, can block the effects of mitochondrial components.
# human skin mast cells [6] = conditions: cited from earlier work
# LAD2 cells [7] = conditions: SP 1 or 2 μM for 30 min (Kulka 2007); cited from earlier work
# human skin mast cells [8] = experiment: Transmission electron microscopy of mitochondria in skin mast cells; format: cell-based
# Source text: Mitochondria are shown within white rectangles. White asterisks represent released granular materials. FIG. 5B charts the number of mitochondria visible under electron microscope and FIG. 5C charts the percentage of mitochondria close to the cell surface in each cell as semi-quantitated from high magnification glossy prints by three independent operators. Magnification: 13,800×; (n=3; *p<0.05 compared to control).
# Observations using Transmission Electron Microscopy (TEM) (Theoharides, et al. 1998, Endocrinology 139:403-13) indicate translocation of mitochondria particles to sites of exocytosis. Mitochondria of unstimulated human skin mast cells are located around the cell nucleus and appear intact (FIG. 5A, left side). On the contrary, mitochondria of activated mast cells are much smaller than mitochondria from control cells and are located close to secretory granules undergoing exocytosis (FIG. 5A, right side).
# LAD2 cells [9] = experiment: mtDNA (Mt-7s, Mt-CytB) in supernatant fluid by real-time PCR; format: cell-based, human; conditions: 10 μM SP, 60 minutes
# Protocol: Cell viability (D) was measured by Tulubin-Blue staining.
# The amount of these two genes, MT-7s DNA and MT-CytB, which are unique to mtDNA and not present in regular human genomic DNA, increased 200 times in SP-stimulated cells (10 μM SP) compared with that in the control as detected by real-time PCR (FIG. 7A). In contrast, genomic DNA for glyceraldehyde 3-phosphate dehydrogenase (GAPDH) is not detected (Hu, VIC TAMRA, data not shown).
# [10] = tested on: murine mast cell line and isolated murine peritoneal mast cells; conditions: SP 0.01 to 1 μM; not IL-1, IL-3, IL-4, IL-6 or GM-CSF; cited from earlier work
# Drp1 = experiment: Western blot of Drp1 phosphorylation at Ser-616; format: cell-based, human; conditions: SP 2 μM for 30 min, LAD2 mast cells
# Source text: Antibodies against the Ser-616 phosphorylated form of Drp1 was purchased from Cell Signaling based in Massachusetts, USA.
# To confirm the involvement of Drp1, the State of phosphorylation of Drp1 at the amino acid serine-616 (Ser-616) was investigated through western blot analysis.
# LAD2 cells [11] = experiment: ATP and Cytochrome C in supernatant fluid of stimulated cells; format: cell-based, human; conditions: SP-stimulated LAD2 cells
# [12] = tested on: isolated cardiac cell mitochondria; conditions: SP concentrations higher than 1 μM; cited from earlier work
smiles,measurement,setting,value
COc1cc(-n2c(=S)[nH]c3ccccc3c2=O)c(Cl)cc1Cl [MDIVI-1],secretion of pre-stored TNF,LAD2 cells [1],significantly inhibited
same,SP-triggered β-hexosaminidase release,LAD2 cells [2],significantly inhibited; also recorded: significant inhibition
same,mitochondrial translocation,"LAD2 cells [3]; MDIVI-1 40 μM pretreatment 15 min, 37° C., SP 2 μM for 30 min",inhibited
"C=CC[C@@H]1/C=C(\C)C[C@H](C)C[C@H](OC)[C@H]2O[C@@](O)(C(=O)C(=O)N3CCCC[C@H]3C(=O)O[C@H](/C(C)=C/[C@@H]3CC[C@@H](O)[C@H](OC)C3)[C@H](C)[C@@H](O)CC1=O)[C@H](C)C[C@@H]2OC [FK506, tacrolimus]",SP content of peripheral sensory neurons,[4],deplete
same,secretion of IgE-induced histamine,rat mast cells,inhibit
same,pruritus,mouse model of AD,prevent
Cl.Clc1cccc(-c2nnnn2Cc2cccnc2)c1Cl.O [A-438079 hydrochloride hydrate],block of mitochondria-induced degranulation,LAD2 cells [5],40%
"CSCC[C@H](NC(=O)[C@H](CC(C)C)NC(=O)CNC(=O)[C@H](Cc1ccccc1)NC(=O)[C@H](Cc1ccccc1)NC(=O)[C@H](CCC(N)=O)NC(=O)[C@H](CCC(N)=O)NC(=O)[C@@H]1CCCN1C(=O)[C@H](CCCCN)NC(=O)[C@@H]1CCCN1C(=O)[C@@H](N)CCCNC(=N)N)C(N)=O [SP, Substance P]",de novo TNF gene expression and release,human skin mast cells [6]; SP 0.3-30 μM (Okayama 1998),selectively induced only de novo TNF gene expression and release
same,histamine and TNF release,human skin mast cells [6]; SP 0.8-100 ηM,induced histamine and de novo synthesized TNF release
same,degranulation of pre-stored TNF,LAD2 cells [7],activates degranulation
same,number of mitochondria visible under the electron microscope,human skin mast cells [8]; SP-activated skin mast cells vs control,increased significantly
same,percentage of mitochondria translocated close to cell surface,"human skin mast cells [8]; SP-activated skin mast cells, control 25%",75%
same,increase in percentage of mitochondria translocated close to cell surface,human skin mast cells [8]; SP-activated vs control (25% to 75%),200%
same,"amount of MT-7s DNA and MT-CytB in supernatant, increase vs control",LAD2 cells [9],200 times
same,gene expression and release of cytokines,[10],induce selective gene expression and release of TNF
same,Drp1 phosphorylation at Ser-616,Drp1,Drp1 phosphorylation
same,Cytochrome C (Cyt C) in supernatant fluid,LAD2 cells [11],marked increase
same,ATP level in supernatant fluid,LAD2 cells [11]; dosage-dependent on SP,marked increase
same,rate of oxygen consumption,[12],enhance
same,percentage of LAD2 cells containing mitochondria undergoing translocation,"LAD2 cells [3]; SP 2 μM, 30 min, 37° C., 20% in control cells",about 55%
same,number of mitochondria close to the cell surface,"LAD2 cells [3]; after SP stimulation (2 μM, 30 min), ImageJ count",significant increase
